Data reported in publication PMC3672142, “A Binding-Site Barrier Affects Imaging Efficiency of High Affinity Amyloid-Reactive Peptide Radiotracers In Vivo” (PLoS ONE, 2013).
No end group written: not given here.

Columns and labels:
AA amyloid = tested on: AA amyloid; set-up: species or system H2-Ld-huIL-6 Tg Balb/c transgenic mice; details: mouse, in vivo, iv
Experimental: AA amyloidosis was induced in H2-Ld-huIL-6 Tg Balb/c transgenic mice that constitutively express the human interleukin-6 transgene, [21] by iv administration of 10 µg of isolated amyloid enhancing factor (AEF – a suspension of AA amyloid fibril extract, [22]) in 100 µL of sterile phosphate-buffered saline (PBS). Mice used in these studies were 4–6 wk post induction. These studies were carried out in strict accordance with a protocol approved by the University of Tennessee Institutional Animal Care and Use Committee. All procedures were approved by the IACUC and were performed in accordance with the guidelines provided by OLAW and the Guide for the Care and Use of Laboratory Animals.
Mice, wild type or those with AA-amyloid, were injected iv in the lateral tail vein with ∼10 µg (∼150 µCi) of radioiodinated (^123I or ^125I) peptide p5, p5R, p5R(1–24) or p5R mixed with 1 mg of unlabeled p5R peptide. […]
Samples of muscle, liver, spleen, pancreas, kidneys, heart, stomach, small and large intestines and lung tissue were harvested post mortem from every mouse. Each sample was placed into a tared, plastic vial, weighed and the ^125I or ^123I radioactivity measured using an automated Wizard 3 gamma counter (1480 Wallac Gamma Counter, Perkin Elmer). The biodistribution data were expressed as % injected dose/g tissue (% ID/g). […]

[1] = tested on: cardiac and pancreatic amyloid; details: SAP imaging; no reference printed at this sentence (refs [14], [15] for SAP imaging); cited from earlier work
Description: Currently, there are no FDA-approved agents available in the USA for quantitative whole body imaging of visceral amyloid in vivo. […] However, there is no evidence that either this or the recently FDA-approved Aβ tracer Amyvid™ will facilitate detection of amyloid deposits in other visceral organs. Numerous amyloid-binding radiotracers have been described, e.g ...

Substance	radioactivity in liver, spleen, pancreas and intestines compared to WT mice (AA amyloid)	detection of cardiac and pancreatic amyloid [1]
GGGYSRAQRAQARQARQAQRAQRAQARQARQ [p5R]	significant radioactivity seen in the liver, spleen, pancreas, and intestines as compared to the WT mice	–
SAP: serum amyloid P component, used as 123I-SAP for planar scintigraphic imaging of amyloid	–	at best, poorly detected
